Marks after values point to notes of the source that are not given here.
Test: 4% fat-corrected milk production in sorbitol feeding trials
Type: in vivo, Holstein cows
Source text: To convert a particular quantity (weight) of a milk sample to the quantity (weight) of Fat-Corrected Milk, based on a correction to a concentration of four weight percent fat, based on the total weight off the Fat-Corrected Milk, the following equation is employed: 4 wt % FCM=Original Milk Weight×(0.4+(0.15×% TFOM)) where: • the term 4 wt % FCM means the calculated weight of Fat-Corrected Milk, based on a correction to a concentration of four weight percent fat, based on the total weight of the Fat-Corrected Milk, • the term Original Milk Weight means the weight of the original milk sample that is being corrected to a four weight percent fat basis, and • % TFOM is the weight % total fat in the original milk sample, based on the total weight of the original milk sample. Each cow of each of the six different trials (Control Trial #1, Control Trial #2, Pre-Partum Trial #1, Pre-Partum Trial #2, Pre/Post Trial #1, and Pre/Post Trial #2) was milked three times daily and the weight of produced milk by each cow was recorded at each milking. The milk from each cow was sampled once per week (⅓ of the sample volume from each of the three milkings occurring on the weekly milk sampling day) and was analyzed for true protein, total fat, lactose, and total solids, as detailed in the property determination and characterization techniques presented above. Additionally, samples of blood were periodically obtained from each cow during the four trials (Control Trial 2, Pre-Partum Trial #2, Pre/Post Trial #1, and Pre/Post Trial #2) encompassed in Example Two and were analyzed for non-esterified fatty acid (NEFA) content as detailed in the property determination and characterization techniques presented above. No NEFA analysis was conducted on the cows employed in Control Trial #1 or Pre-Partum Trial #1 that are the subject of Example One. Example One includes Control Trial #1 and Pre-Partum Trial #1. Both primiparious cows and multiparious cows were included in Control Trial #1 and Pre-Partum Trial #1. Five primiparious cows and fifteen multiparious cows were included in Control Trial #1; likewise, five primiparious cows and fifteen multiparious cows were included in Pre-Partum Trial #1. All cows included in Control Trial #1 and Pre-Partum Trial #1 were Holsteins. Example Two includes Control Trial #2, Pre-Partum Trial #2, Pre/Post Trial #1, and Pre/Post Trial #2. Only multiparious, Holstein cows were included in Control Trial #2, Pre-Partum Trial #1, Pre/Post Trial #1, and Pre/Post Trial #2. Eighteen multiparious cows were included in both Control Trial #2 and Pre-Partum Trial #2, while sixteen multiparious cows were included in Pre/Post Trial #1 and seventeen multiparious cows were included in Pre/Post Trial #2.

## OC[C@@H](O)[C@@H](O)[C@H](O)[C@@H](O)CO [sorbitol]
Pre-Partum Trial #1 (75/0/0 g/day in wk −3..−1/+1..+4/+5..+8), multiparious cows, weeks +1 through +8
  Milk Production (4.0% fat basis): 98.6 lbs/day
Pre-Partum Trial #1 (75/0/0 g/day in wk −3..−1/+1..+4/+5..+8), primiparious cows, weeks +1 through +8
  Milk Production (4.0% fat basis): 79.3 lbs/day
Pre-Partum Trial #1 (75 g/day wk −3..−1 only) versus Control Trial #1, multiparious cows, weeks +1 through +8
  4% fat-corrected milk production increase: 12.4%
Pre-Partum Trial #1 (75 g/day wk −3..−1 only) versus Control Trial #1, primiparious cows, weeks +1 through +8
  increase in production of 4% fat-corrected milk: 7.6%
Pre-Partum Trial #2 (75/0/100 g/day in wk −3..−1/+1..+4/+5..+8), multiparious cows, week +1
  Milk Production (4.0% fat basis): 71.1^a lbs/day
Pre-Partum Trial #2 (75/0/100 g/day in wk −3..−1/+1..+4/+5..+8), multiparious cows, week +2
  Milk Production (4.0% fat basis): 100 lbs/day
Pre-Partum Trial #2 (75/0/100 g/day in wk −3..−1/+1..+4/+5..+8), multiparious cows, week +3
  Milk Production (4.0% fat basis): 104 lbs/day
Pre-Partum Trial #2 (75/0/100 g/day in wk −3..−1/+1..+4/+5..+8), multiparious cows, week +4
  Milk Production (4.0% fat basis): 101 lbs/day
Pre-Partum Trial #2 (75/0/100 g/day in wk −3..−1/+1..+4/+5..+8), multiparious cows, week +5
  Milk Production (4.0% fat basis): 104^ab lbs/day
Pre-Partum Trial #2 (75/0/100 g/day in wk −3..−1/+1..+4/+5..+8), multiparious cows, week +6
  Milk Production (4.0% fat basis): 102 lbs/day
Pre-Partum Trial #2 (75/0/100 g/day in wk −3..−1/+1..+4/+5..+8), multiparious cows, week +7
  Milk Production (4.0% fat basis): 102 lbs/day
Pre-Partum Trial #2 (75/0/100 g/day in wk −3..−1/+1..+4/+5..+8), multiparious cows, week +8
  Milk Production (4.0% fat basis): 99.5^ab lbs/day
Pre-Partum Trial #2 (75/0/100 g/day in wk −3..−1/+1..+4/+5..+8), multiparious cows, weeks +1 through +4
  Milk Production (4.0% fat basis): 94.4 lbs/day
Pre-Partum Trial #2 (75/0/100 g/day in wk −3..−1/+1..+4/+5..+8), multiparious cows, weeks +1 through +8
  Milk Production (4.0% fat basis): 98 lbs/day
Pre-Partum Trial #2 (75/0/100 g/day in wk −3..−1/+1..+4/+5..+8), multiparious cows, weeks +5 through +8
  Milk Production (4.0% fat basis): 102 lbs/day
Pre/Post Trial #1 (150/125/100 g/day in wk −3..−1/+1..+4/+5..+8), multiparious cows, week +1
  Milk Production (4.0% fat basis): 82.1^ab lbs/day
Pre/Post Trial #1 (150/125/100 g/day in wk −3..−1/+1..+4/+5..+8), multiparious cows, week +1, two-trial comparison with Control Trial #2 (Table 23)
  Milk Production (4.0% fat basis): 82.4 lbs/day
Pre/Post Trial #1 (150/125/100 g/day in wk −3..−1/+1..+4/+5..+8), multiparious cows, week +2
  Milk Production (4.0% fat basis): 100 lbs/day
Pre/Post Trial #1 (150/125/100 g/day in wk −3..−1/+1..+4/+5..+8), multiparious cows, week +2, two-trial comparison with Control Trial #2 (Table 23)
  Milk Production (4.0% fat basis): 99.7 lbs/day
Pre/Post Trial #1 (150/125/100 g/day in wk −3..−1/+1..+4/+5..+8), multiparious cows, week +3
  Milk Production (4.0% fat basis): 107 lbs/day
Pre/Post Trial #1 (150/125/100 g/day in wk −3..−1/+1..+4/+5..+8), multiparious cows, week +3, two-trial comparison with Control Trial #2 (Table 23)
  Milk Production (4.0% fat basis): 107 lbs/day
Pre/Post Trial #1 (150/125/100 g/day in wk −3..−1/+1..+4/+5..+8), multiparious cows, week +4
  Milk Production (4.0% fat basis): 109 lbs/day
Pre/Post Trial #1 (150/125/100 g/day in wk −3..−1/+1..+4/+5..+8), multiparious cows, week +4, two-trial comparison with Control Trial #2 (Table 23)
  Milk Production (4.0% fat basis): 109 lbs/day
Pre/Post Trial #1 (150/125/100 g/day in wk −3..−1/+1..+4/+5..+8), multiparious cows, week +5
  Milk Production (4.0% fat basis): 108^ab lbs/day
Pre/Post Trial #1 (150/125/100 g/day in wk −3..−1/+1..+4/+5..+8), multiparious cows, week +5, two-trial comparison with Control Trial #2 (Table 23)
  Milk Production (4.0% fat basis): 108 lbs/day
Pre/Post Trial #1 (150/125/100 g/day in wk −3..−1/+1..+4/+5..+8), multiparious cows, week +6
  Milk Production (4.0% fat basis): 109 lbs/day
Pre/Post Trial #1 (150/125/100 g/day in wk −3..−1/+1..+4/+5..+8), multiparious cows, week +6, two-trial comparison with Control Trial #2 (Table 23)
  Milk Production (4.0% fat basis): 109 lbs/day
Pre/Post Trial #1 (150/125/100 g/day in wk −3..−1/+1..+4/+5..+8), multiparious cows, week +7
  Milk Production (4.0% fat basis): 103 lbs/day
Pre/Post Trial #1 (150/125/100 g/day in wk −3..−1/+1..+4/+5..+8), multiparious cows, week +7, two-trial comparison with Control Trial #2 (Table 23)
  Milk Production (4.0% fat basis): 103 lbs/day
Pre/Post Trial #1 (150/125/100 g/day in wk −3..−1/+1..+4/+5..+8), multiparious cows, week +8
  Milk Production (4.0% fat basis): 108.7^b lbs/day
Pre/Post Trial #1 (150/125/100 g/day in wk −3..−1/+1..+4/+5..+8), multiparious cows, week +8, two-trial comparison with Control Trial #2 (Table 23)
  Milk Production (4.0% fat basis): 109 lbs/day
Pre/Post Trial #1 (150/125/100 g/day in wk −3..−1/+1..+4/+5..+8), multiparious cows, weeks +1 through +4
  Milk Production (4.0% fat basis): 99.5 lbs/day
Pre/Post Trial #1 (150/125/100 g/day in wk −3..−1/+1..+4/+5..+8), multiparious cows, weeks +1 through +4, two-trial comparison with Control Trial #2 (Table 23)
  Milk Production (4.0% fat basis): 99.7 lbs/day
Pre/Post Trial #1 (150/125/100 g/day in wk −3..−1/+1..+4/+5..+8), multiparious cows, weeks +1 through +8
  Milk Production (4.0% fat basis): 103 lbs/day
Pre/Post Trial #1 (150/125/100 g/day in wk −3..−1/+1..+4/+5..+8), multiparious cows, weeks +1 through +8, two-trial comparison with Control Trial #2 (Table 23)
  Milk Production (4.0% fat basis): 103 lbs/day
Pre/Post Trial #1 (150/125/100 g/day in wk −3..−1/+1..+4/+5..+8), multiparious cows, weeks +5 through +8
  Milk Production (4.0% fat basis): 107 lbs/day
Pre/Post Trial #1 (150/125/100 g/day in wk −3..−1/+1..+4/+5..+8), multiparious cows, weeks +5 through +8, two-trial comparison with Control Trial #2 (Table 23)
  Milk Production (4.0% fat basis): 107 lbs/day
Pre/Post Trial #1 (150/125/100 g/day) versus Control Trial #2, multiparious cows, week +8
  greater production of 4% fat-corrected milk: 13.2%
Pre/Post Trial #1 (150/125/100 g/day) versus Control Trial #2, multiparious cows, weeks +5 through +8 (Table 23)
  increase in production of 4% fat-corrected milk: 8.1%
Pre/Post Trial #1 (150/125/100 g/day) versus Pre/Post Trial #2 (75/75/100 g/day), multiparious cows, week +8
  greater rate of 4% fat-corrected milk production: 15.1%
Pre/Post Trial #2 (75/75/100 g/day in wk −3..−1/+1..+4/+5..+8), multiparious cows, week +1
  Milk Production (4.0% fat basis): 88.6^b lbs/day
Pre/Post Trial #2 (75/75/100 g/day in wk −3..−1/+1..+4/+5..+8), multiparious cows, week +2
  Milk Production (4.0% fat basis): 103 lbs/day
Pre/Post Trial #2 (75/75/100 g/day in wk −3..−1/+1..+4/+5..+8), multiparious cows, week +3
  Milk Production (4.0% fat basis): 106 lbs/day
Pre/Post Trial #2 (75/75/100 g/day in wk −3..−1/+1..+4/+5..+8), multiparious cows, week +4
  Milk Production (4.0% fat basis): 105 lbs/day
Pre/Post Trial #2 (75/75/100 g/day in wk −3..−1/+1..+4/+5..+8), multiparious cows, week +5
  Milk Production (4.0% fat basis): 111^b lbs/day
Pre/Post Trial #2 (75/75/100 g/day in wk −3..−1/+1..+4/+5..+8), multiparious cows, week +6
  Milk Production (4.0% fat basis): 104 lbs/day
Pre/Post Trial #2 (75/75/100 g/day in wk −3..−1/+1..+4/+5..+8), multiparious cows, week +7
  Milk Production (4.0% fat basis): 101 lbs/day
Pre/Post Trial #2 (75/75/100 g/day in wk −3..−1/+1..+4/+5..+8), multiparious cows, week +8
  Milk Production (4.0% fat basis): 94.4^a lbs/day
Pre/Post Trial #2 (75/75/100 g/day in wk −3..−1/+1..+4/+5..+8), multiparious cows, weeks +1 through +4
  Milk Production (4.0% fat basis): 100.6 lbs/day
Pre/Post Trial #2 (75/75/100 g/day in wk −3..−1/+1..+4/+5..+8), multiparious cows, weeks +1 through +8
  Milk Production (4.0% fat basis): 101 lbs/day
Pre/Post Trial #2 (75/75/100 g/day in wk −3..−1/+1..+4/+5..+8), multiparious cows, weeks +5 through +8
  Milk Production (4.0% fat basis): 102 lbs/day
Pre/Post Trial #2 (75/75/100 g/day) versus Control Trial #2, multiparious cows, week +5
  greater production of 4% fat-corrected milk: 12.1%
Pre/Post Trial #2 (75/75/100 g/day) versus Pre-Partum Trial #2 (75/0/100 g/day), multiparious cows, week +1
  greater rate of 4% fat-corrected milk production: 24.6%

— US9179694B2, “Method and composition for enhancing milk production and milk component concentrations” (PURINA ANIMAL NUTRITION LLC, priority 2003, dated 2015)
